{"source": "patent US20210393807A1", "about": "“PHOTOACOUSTIC VOLTAGE-SENSITIVE DYES FOR IN VIVO IMAGING” (The Johns Hopkins University, priority 2016, published 2021)", "key": {"rat brain [1]": {"system": "rat brain", "test": "Microdialysis of extracellular glutamate during NMDA infusion", "assay_type": "in vivo, Sprague Dawley rats", "details": "NMDA infusion phase, 0.3-mM NMDA via microdialysis probe; baseline phase 0.557 μM", "excerpt": "(§1) 3.1.1 Animal preparation. For the in vivo experiments, 8-9-week-old male Sprague Dawley rats weighing 275-390 g were used (Charles Rivers Laboratory, Inc., MA, United States). The use of animals for the proposed experimental protocol was approved by the Institutional Research Board Committee of Johns Hopkins Medical Institute (RA16M225). The hair was shaved from the scalp of each rat for improved optical/acoustic coupling for transcranial PA recording. The head of the anesthetized rat was fixed to a stable position using a standard stereotaxic device. This fixation procedure was required to prevent any unpredictable movement during PA recording of neural activities.\n3.1.2 Microdialysis setup. The microdialysis probe consists of a shaft with a semipermeable hollow membrane tip, which is connected to inlet and outlet tubing. The extracellular fluid samples were continuously acquired before and after the infusion of 0.3-mM NMDA through the inlet of the microdialysis probe (FIG. 22A). Each acquisition of extracellular fluid sample took 20 min with 2 μL/min flow rate. From the samples, the change of glutamate concentration was measured.\n3.1.3 In vivo experimental protocol. […] PA data acquisition was continuously performed for 40 min to be correlated with the glutamate concentration change measured by microdialysis with 20-min intervals. […]"}, "rat brain [2]": {"system": "rat brain", "test": "PA recording of neural activity index during NMDA infusion", "assay_type": "in vivo, Sprague Dawley rats", "excerpt": "as §1\n3.1.3 In vivo experimental protocol. The in vivo protocol was designed to have two different phases: baseline and NMDA infusion (FIG. 22B). PA data acquisition was continuously performed for 40 min to be correlated with the glutamate concentration change measured by microdialysis with 20-min intervals. The baseline phase was designed to confirm its stable neural activity before the NMDA infusion. […]"}}, "note": "Several values for one entry are separate records, joined by “and”; a condition that tells them apart may be missing. Equal values may be shown once."}
{"compound": "CN[C@H](CC(=O)O)C(=O)O", "note": "[NMDA]", "values": [{"measurement": "extracellular glutamate concentration", "setting": "rat brain [1]", "value": "0.000643 mM and 0.000648 mM"}, {"measurement": "increase of neural activity index estimated by PA recording", "setting": "rat brain [2]; 30 min of NMDA infusion, after VSD and Lexiscan administration", "value": "up to 3.27 times"}, {"measurement": "time at which the increase of index is saturated", "setting": "rat brain [2]; from the start of NMDA infusion", "value": "10 to 15", "unit": "min"}]}
